Laboratory results taken from ChEMBL document CHEMBL4184114, “Discovery of selective, orally bioavailable inhibitor of mouse chitotriosidase” (Bioorg Med Chem Lett, 2018).

Tests used:
Chitotriosidase-1 = Chitotriosidase-1 (Mus musculus, UniProt Q9D7Q1); assay: Inhibition of mouse CHIT1 using 4-methylumbelliferyl beta-D-N,N',N'' triacetylchitotrioside as substrate measured after 60 mins by fluorometric method
[1] = biological target: Acidic mammalian chitinase (Mus musculus, UniProt Q91XA9); assay: Inhibition of mouse AMCase using 4-methylumbelliferyl beta-D-N,N' diacetylchitobioside hydrate as substrate measured after 60 mins by fluorometric method
Acidic mammalian chitinase, sequence (Q91XA9 whole entry): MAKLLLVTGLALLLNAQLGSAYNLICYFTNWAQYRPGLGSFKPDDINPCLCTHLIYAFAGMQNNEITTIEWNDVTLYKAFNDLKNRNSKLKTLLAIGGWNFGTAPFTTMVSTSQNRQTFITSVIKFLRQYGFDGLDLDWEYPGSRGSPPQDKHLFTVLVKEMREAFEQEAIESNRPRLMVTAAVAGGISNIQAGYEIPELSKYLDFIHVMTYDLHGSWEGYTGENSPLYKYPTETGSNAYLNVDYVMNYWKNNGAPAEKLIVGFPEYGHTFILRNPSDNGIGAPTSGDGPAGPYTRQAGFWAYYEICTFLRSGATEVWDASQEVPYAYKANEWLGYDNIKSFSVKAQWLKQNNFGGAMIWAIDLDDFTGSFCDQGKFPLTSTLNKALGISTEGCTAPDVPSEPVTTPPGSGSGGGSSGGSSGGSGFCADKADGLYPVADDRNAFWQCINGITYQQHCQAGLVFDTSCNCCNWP

[2] = AUC (0 to infinity) in BALB/c mouse at 10 mg/kg, po by LC-MS/MS analysis; type: ADME, organism-based; design: dose 10 mg/kg, time infinity, route oral; conditions: in vivo
[3] = AUC (0 to infinity) in BALB/c mouse at 3 mg/kg, iv administered as bolus dose by LC-MS/MS analysis; type: ADME, organism-based; design: dose 3 mg/kg, route intravenous, time infinity; conditions: in vivo
[4] = Half-life in BALB/c mouse at 10 mg/kg, po by LC-MS/MS analysis; type: ADME, organism-based; conditions: in vivo
[5] = Tmax in BALB/c mouse at 10 mg/kg, po by LC-MS/MS analysis; type: ADME, organism-based; conditions: in vivo
[6] = Clearance in BALB/c mouse at 3 mg/kg, iv administered as bolus dose by LC-MS/MS analysis; type: ADME, organism-based; conditions: in vivo
[7] = Half-life in BALB/c mouse at 3 mg/kg, iv administered as bolus dose by LC-MS/MS analysis; type: ADME, organism-based; conditions: in vivo
[8] = Cmax in BALB/c mouse at 10 mg/kg, po by LC-MS/MS analysis; type: ADME, organism-based; design: dose 10 mg/kg, route oral; conditions: in vivo
[9] = Oral bioavailability in BALB/c mouse at 10 mg/kg by LC-MS/MS analysis; type: ADME, organism-based; conditions: in vivo
[10] = Volume of distribution at steady state in BALB/c mouse at 3 mg/kg, iv administered as bolus dose by LC-MS/MS analysis; type: ADME, organism-based; conditions: in vivo, read-out: Vdss
[11] = Cmax in BALB/c mouse at 3 mg/kg, iv administered as bolus dose by LC-MS/MS analysis; type: ADME, organism-based; design: dose 3 mg/kg, route intravenous; conditions: in vivo

Chitotriosidase-1, sequence (Q9D7Q1 whole entry): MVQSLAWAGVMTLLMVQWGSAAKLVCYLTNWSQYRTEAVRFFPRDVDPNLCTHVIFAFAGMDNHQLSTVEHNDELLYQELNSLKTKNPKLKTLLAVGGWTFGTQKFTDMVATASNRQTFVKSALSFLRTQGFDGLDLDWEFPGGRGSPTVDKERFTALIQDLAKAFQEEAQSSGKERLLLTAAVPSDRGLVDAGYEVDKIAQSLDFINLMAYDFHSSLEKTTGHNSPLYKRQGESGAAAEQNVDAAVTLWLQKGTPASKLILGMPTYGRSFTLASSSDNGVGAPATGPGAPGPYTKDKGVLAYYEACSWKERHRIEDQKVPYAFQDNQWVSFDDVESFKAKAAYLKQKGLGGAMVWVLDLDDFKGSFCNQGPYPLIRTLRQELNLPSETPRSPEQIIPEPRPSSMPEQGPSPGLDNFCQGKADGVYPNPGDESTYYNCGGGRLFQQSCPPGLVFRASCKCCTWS

IC50 (Chitotriosidase-1) [nM]	IC50 [1] [nM]	SMILES	also measured
29	130	Nc1nc(N2CCC(N3C[C@@H]4C[C@H](O)CN4C[C@@H]3Cc3ccc(Cl)cc3)CC2)n[nH]1	
495	1400	C[C@H]1CN(C2CCN(c3n[nH]c(N)n3)CC2)[C@@H](Cc2ccc(Cl)cc2)CN1Cc1ccc(Cl)cc1	
186	1220	C[C@H]1CN(C2CCN(c3nnc(N)[nH]3)CC2)[C@@H](Cc2ccc(Cl)cc2)CN1C	
4380	6020	CC(=O)N1C[C@H](Cc2ccc(Cl)cc2)N(C2CCN(c3nnc(N)[nH]3)CC2)C[C@@H]1C	
29	4170	CC(C)CN1C[C@H](Cc2ccc(Cl)cc2)N(C2CCN(c3n[nH]c(N)n3)CC2)C[C@@H]1C	AUC(0-inf) [2]: 3570 ng·h/mL; AUC(0-inf) [3]: 1750 ng·h/mL; half-life [4]: 170 min; Tmax [5]: 30 min; clearance [6]: 28.5 mL/min/kg; half-life [7]: 172 min; Cmax [8]: 840 ng/mL; bioavailability [9]: 61.2%; Vd [10]: 4.6 L/kg; Cmax [11]: 1480 ng/mL
175	525	Nc1nc(N2CCC(N3C[C@@H]4CCCCN4C[C@@H]3Cc3ccc(Cl)cc3)CC2)n[nH]1	
1590	7600	CN1CCN(C2CCN(c3nnc(N)[nH]3)CC2)[C@@H](Cc2ccc(Cl)cc2)C1	
24	751	C[C@H]1CN(C2CCN(c3n[nH]c(N)n3)CC2)[C@@H](Cc2ccc(Cl)cc2)CN1CC(=O)N(C)C	
175	1250	CN1C[C@H](Cc2ccc(Cl)cc2)N(C2CCN(c3nnc(N)[nH]3)CC2)C[C@@H]1CO	
1010	3720	C[C@H]1CN(C2CCN(c3nnc(N)[nH]3)CC2)[C@@H](Cc2ccc(Cl)cc2)CN1S(C)(=O)=O	
461	3750	COC(=O)N1C[C@H](Cc2ccc(Cl)cc2)N(C2CCN(c3nnc(N)[nH]3)CC2)C[C@@H]1C	
135	2910	CC(C)C[C@H]1CN(C2CCN(c3n[nH]c(N)n3)CC2)[C@@H](Cc2ccc(Cl)cc2)CN1	
95	936	CC(C)C[C@H]1CN(C2CCN(c3nnc(N)[nH]3)CC2)[C@@H](Cc2ccc(Cl)cc2)CN1C	
48	136	Nc1nc(N2CCC(N3C[C@@H]4C[C@@H](O)CN4C[C@@H]3Cc3ccc(Cl)cc3)CC2)n[nH]1	
128	640	CN1C[C@H](Cc2ccc(Cl)cc2)N(C2CCN(c3nnc(N)[nH]3)CC2)C[C@@H]1CC1CCCCC1	
41	5700	CC(C)C[C@H]1CN(C2CCN(c3n[nH]c(N)n3)CC2)[C@@H](Cc2ccc(Cl)cc2)CN1CC(C)C	
29	231	COC(=O)CN1C[C@H](Cc2ccc(Cl)cc2)N(C2CCN(c3n[nH]c(N)n3)CC2)C[C@@H]1C	
53	527	C[C@H]1CN(C2CCN(c3nnc(N)[nH]3)CC2)[C@@H](Cc2ccc(Cl)cc2)CN1CC(=O)O	
161	697	Nc1nnc(N2CCC(N3C[C@@H]4CCCN4C[C@@H]3Cc3ccc(Cl)cc3)CC2)[nH]1	
103	518	CN1C[C@H](Cc2ccc(Cl)cc2)N(C2CCN(c3nnc(N)[nH]3)CC2)C[C@@H]1Cc1ccc(Cl)cc1	
